Source: patent US20170232017A1, “TREATMENT OF CANCER” (Threshold Pharmaceuticals, Inc., priority 2012, published 2017)

Tested on: patients with first-line advanced pancreatic cancer
Experiment: randomized controlled Phase 2b clinical trial of TH-302 in combination with gemcitabine vs gemcitabine alone (NCT01144455)
Protocol: (§1) The clinical trial was conducted as a multi-center, randomized, controlled, dose-ranging, Phase 2b crossover clinical trial of TH-302 in combination with gemcitabine in patients with first line advanced pancreatic cancer. The primary endpoint of the trial was progression-free survival. The secondary endpoints were overall response rate, overall survival, change in CA 19-9 as well as various other efficacy and safety parameters. Tumor response was evaluated at baseline and every eight weeks using RECIST. Patients for whom monotherapy with gemcitabine is considered standard therapy were eligible for the trial. Patients were randomized equally into one of three cohorts: TH-302 at a dose of 240 mg/m^2 plus gemcitabine, TH-302 at a dose of 340 mg/m^2 plus gemcitabine, or gemcitabine alone. Patients who successfully completed six cycles of treatment without evidence of significant treatment-related toxicity or progressive disease could continue to receive treatment. If a patient experienced cancer progression on gemcitabine alone, the patient could cross over and be randomized into one of the TH-302 plus gemcitabine cohorts. The primary efficacy analysis was performed based upon 149 investigator-assessed PFS events and per protocol pooled the data from the two gemcitabine plus TH-302 dose groups in the comparison to gemcitabine alone.
In a separate Phase 2b trial, TH-302 was administered intravenously for 30 to 60 minutes on days 1, 8 and 15 of a 28 day cycle at either 240 mg/m^2 or 340 mg/m^2. Gemcitabine was dosed according to its package insert on days 1, 8 and 15 of a 28 day cycle. The 214 patient randomized controlled Phase 2b clinical trial compared the efficacy and safety of these two doses (240 mg/m^2 and 340 mg/m^2) of TH-302 in combination with gemcitabine to gemcitabine alone in patients with first-line advanced pancreatic cancer.
as §1, with “CA19-9” for “CA 19-9”, “over” for “over and be randomized”
This example is an update of the open-label, multicenter, randomized, Phase 2b study (NCT01144455) of two dose levels of TH-302 in combination with gemcitabine vs gemcitabine alone. The update was conducted in September 2012 and including a further follow-up of the data provided in Example 2.
Patients were stratified according to their disease stage (unresectable locally advanced vs distant metastases) and randomized as shown in FIG. 4.

## Cn1c(COP(=O)(NCCBr)NCCBr)cnc1[N+](=O)[O-] [TH-302, (2-bromoethyl)({[(2-bromoethyl)amino][(2-nitro-3-methylimidazol-4-yl)methoxy]phosphoryl})-amine]
TH-302 treated groups (combined) vs gemcitabine alone
  improvement in median PFS: about 2 months
In combination with gemcitabine
  Skin and mucosal toxicities related to TH-302: dose dependent but not dose limiting
Two groups (combined) that received TH-302 at different doses plus gemcitabine, FIG. 2A
  median PFS: 5.6 months

## Nc1ccn([C@@H]2O[C@H](CO)[C@@H](O)C2(F)F)c(=O)n1 [gemcitabine]
Gemcitabine alone arm, primary analysis
  response rate: 12%
Gemcitabine alone, primary analysis
  median progression-free survival (PFS): 3.6 months
human, in vivo
  Median time to CA 19-9 response, months (range): 1.8 (0.9-5.6) months
  Patients with AEs, (%): Any rash: 16%
  Patients with AEs, (%): Pyrexia: 23%
  Patients with AEs, (%): Stomatitis: 7%
Patients with baseline > upper limit of normal and at least one post-baseline assessment
  Mean CA 19-9 nadir change: −523 U/mL
Percent of patients
  CA 19-9 decrease >20%, (%): 68%
  CA 19-9 decrease >50%, (%): 52%
  CA 19-9 decrease >90%, (%): 16%
Update September 2012
  6-month survival rate: 57%
  12-month survival rate: 26%
  Disease control (CR, PR, plus stable disease): 67 % of patients
  Grade 3/4 febrile neutropenia: 0 % of patients
  Objective best (unconfirmed) response (CR plus PR): 10 % of patients
  Treatment-emergent Grade 3/4 neutropenia: 16 % of patients
  Treatment-emergent Grade 3/4 thrombocytopenia: 10%
Update September 2012, FIG. 5A
  median PFS: 3.6 months
Update September 2012, FIG. 5B
  Median OS: 6.9 months
